Experimental data from patent US9365556B2, “3,5-diaminopyrazole kinase inhibitors” (Axikin Pharmaceuticals, Inc., priority 2012, dated 2016).

Molecular target: T1, kinase domain protein of RC kinase (Homo sapiens, UniProt Q56UN5)
T1 sequence (Q56UN5 1061-1324 limits assumed): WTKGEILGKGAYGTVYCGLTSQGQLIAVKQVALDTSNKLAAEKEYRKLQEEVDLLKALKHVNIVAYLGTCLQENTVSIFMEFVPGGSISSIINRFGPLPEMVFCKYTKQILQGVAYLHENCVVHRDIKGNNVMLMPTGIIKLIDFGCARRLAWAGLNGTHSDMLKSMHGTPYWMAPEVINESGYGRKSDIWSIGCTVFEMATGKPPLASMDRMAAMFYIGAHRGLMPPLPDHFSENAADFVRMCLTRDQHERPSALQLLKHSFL
Experiment: Enzymatic assay for kinase inhibitory activity (Crebtide substrate, LANCE read-out)
Format: biochemical
Settings: compound at 1 μM
Procedure: Solutions of a test compound, Crebtide (a substrate), a kinase, and ATP were prepared using 1×MAPK Buffer (50 mM HEPES, 1 mM EGTA, […], 10 mM MgCl2, 2 mM DTT, and 0.01% Tween 20).
To each well, the test compound (1 μL) was first added (in duplicate) to reach a final concentration of 1 μM or 1×IC50 of the compound. The kinase (5 μl) was then added to each well to reach a final concentration of […] for the kinase domain or […] for the full-length domain. Each plate included a positive and negative controls in duplicate wells. Crebtide (2.5 μL) was then added to each well in duplicate to reach a final concentration of 50 nM. If the full-length kinase was used, the plates were incubated for 45 min at room temperature before proceeding further. ATP (2.5 μL) was added to each well to reach a final concentration of 1 μM for the kinase domain and 3 μM for the full-length.
After the addition of ATP, the plates were incubated for 45 min at room temperature. During the incubation, an EDTA solution (40 mM) and anti-Crebtide ([…]) were prepared. Additionally, a detection buffer stock solution was diluted ten fold before use.
After the incubation, the anti-Crebtide (5 μL) and EDTA (5 μL) were added to each well to reach their final concentrations of […] and 10 mM, respectively. The plates were allowed to develop at room temperature for 45 min. The plates were then read at 665 nm and 615 nm using Perkin Elmer Lance machine.
The biological results of inhibition of the kinase domain protein of RC kinase are summarized in Tables 2 and 3, wherein A represents at least 50% inhibition of the RC kinase activity at 1 μM; B represents no greater than 50% but at least 20% inhibition of the RC kinase activity at 1 μM; C represents no greater than 20% but at least 5% inhibition of the RC kinase activity at 1 μM; and D represents no greater than 5% inhibition of the RC kinase activity at 1 μM.

Row | SMILES | Activity (inhibition of the RC kinase activity) | inhibition at 1 µM [%]
1 | NC(=O)c1c(Nc2cccc(Cl)c2)n[nH]c1/N=C/c1nc(-c2ccccc2)[nH]c1Cl [Compound B72] | B (no greater than 50% but at least 20% inhibition of the RC kinase activity at 1 μM) | –
2 | NC(=O)c1c(Nc2cccc(Cl)c2)n[nH]c1/N=C/c1c[nH]nc1-c1ccc(F)cc1 [Compound B98] | C (no greater than 20% but at least 5% inhibition of the RC kinase activity at 1 μM) | –
3 | NC(=O)c1c(Nc2cccc(Cl)c2)n[nH]c1/N=C/c1ccc(Cl)cc1O [Compound B94] | – | 5 to 20
4 | NC(=O)c1c(Nc2cccc(Cl)c2)n[nH]c1/N=C/C1CCNCC1 [Compound B96] | D (no greater than 5% inhibition of the RC kinase activity at 1 μM) | –
5 | Cc1cc(/C=N/c2[nH]nc(Nc3cccc(Cl)c3)c2C#N)no1 [Compound B100] | C (no greater than 20% but at least 5% inhibition of the RC kinase activity at 1 μM) | –
6 | NC(=O)c1c(Nc2cccc(Cl)c2)n[nH]c1/N=C/c1cc(F)cc2c1OCOC2 [Compound B29] | D (no greater than 5% inhibition of the RC kinase activity at 1 μM) | –
7 | N#Cc1c(Nc2cccc(Cl)c2)n[nH]c1/N=C/c1ccc(-c2ccc(Cl)cc2)o1 [Compound A73] | C (no greater than 20% but at least 5% inhibition of the RC kinase activity at 1 μM) | –
8 | NC(=O)c1c(Nc2cccc(Cl)c2)n[nH]c1/N=C/c1ccc(-n2cnc3ccccc32)cc1 [Compound B97] | D (no greater than 5% inhibition of the RC kinase activity at 1 μM) | –
9 | NC(=O)c1c(Nc2cccc(Cl)c2)n[nH]c1/N=C/c1ccc(-c2ccccn2)s1 [Compound B60] | D (no greater than 5% inhibition of the RC kinase activity at 1 μM) | –
10 | CN1CCN(c2ccc(/C=N/c3[nH]nc(Nc4cccc(Cl)c4)c3C#N)cc2)CC1 [Compound A74] | C (no greater than 20% but at least 5% inhibition of the RC kinase activity at 1 μM) | –
11 | NC(=O)c1c(Nc2cccc(Cl)c2)n[nH]c1/N=C/c1ccc(OCc2ccc(F)cc2)cc1 [Compound B107] | – | ≤ 5
12 | NC(=O)c1c(Nc2cccc(Cl)c2)n[nH]c1/N=C/c1ccc(Oc2ccc(C(F)(F)F)cn2)cc1 [Compound B63] | B (no greater than 50% but at least 20% inhibition of the RC kinase activity at 1 μM) | –
13 | N#Cc1cc(/C=N/c2[nH]nc(Nc3cccc(Cl)c3)c2C(N)=O)ccc1F [Compound B87] | – | ≤ 5
14 | NC(=O)c1c(Nc2cccc(Cl)c2)n[nH]c1/N=C/c1ccc(N2CCCC2)nc1 [Compound B66] | – | 20 to 50
15 | Cn1c(Cl)c(/C=N/c2[nH]nc(Nc3cccc(Cl)c3)c2C#N)c2ccccc21 [Compound A78] | C (no greater than 20% but at least 5% inhibition of the RC kinase activity at 1 μM) | –
16 | COc1cc(/C=N/c2[nH]nc(Nc3cccc(Cl)c3)c2C(N)=O)ccc1OCc1cnc(Cl)s1 [Compound B55] | – | 5 to 20
17 | NC(=O)c1c(Nc2cccc(Cl)c2)n[nH]c1/N=C/c1ccc(C(F)(F)F)cc1 [Compound B16] | D (no greater than 5% inhibition of the RC kinase activity at 1 μM) | –

Row | SMILES | Activity (inhibition of the RC kinase activity) | inhibition at 1 µM [%]
18 | NC(=O)c1c(Nc2ccccc2Cl)n[nH]c1/N=C/c1ccccc1 [Compound B115] | B (no greater than 50% but at least 20% inhibition of the RC kinase activity at 1 μM) | –
19 | COc1cc(/C=N/c2[nH]nc(Nc3ccc(Cl)cc3)c2C(N)=O)ccc1O [Compound B32] | A (at least 50% inhibition of the RC kinase activity at 1 μM) | –
20 | N#Cc1c(Nc2cccc(Cl)c2)n[nH]c1/N=C/c1ccc(-c2ccccn2)s1 [Compound A2] | – | 20 to 50
21 | NC(=O)c1c(Nc2cccc(Cl)c2)n[nH]c1/N=C/c1ccc(OCCO)cc1 [Compound B109] | – | 5 to 20
22 | COc1ccc(Nc2n[nH]c(/N=C/c3ccc(Cl)cc3)c2C#N)cc1 [Compound A44] | D (no greater than 5% inhibition of the RC kinase activity at 1 μM) | –
23 | NC(=O)c1c(Nc2cccc(Cl)c2)n[nH]c1/N=C/c1cccn1S(=O)(=O)c1ccccc1 [Compound B71, 3-((3-chlorophenyl)amino)-5-(((1-(phenylsulfonyl)-1H-pyrrol-2-yl)methylene)amino)-1H-pyrazole-4-carboxamide] | – | 20 to 50
24 | N#Cc1c(Nc2cccc(Cl)c2)n[nH]c1/N=C/c1cccs1 [Compound A105] | D (no greater than 5% inhibition of the RC kinase activity at 1 μM) | –
25 | NC(=O)c1c(Nc2cccc(Cl)c2)n[nH]c1/N=C/c1ccc(CO)o1 [Compound B84, 3-((3-chlorophenyl)amino)-5-(((5-(hydroxymethyl)furan-2-yl)methylene)amino)-1H-pyrazole-4-carboxamide] | – | ≥ 50
26 | NC(=O)c1c(Nc2cccc(Cl)c2)n[nH]c1/N=C/c1cc[nH]c1 [Compound B111] | – | ≥ 50
27 | NC(=O)c1c(Nc2cccc(Cl)c2)n[nH]c1/N=C/c1ccc(Oc2nccc(C(F)(F)F)n2)cc1 [Compound B75] | – | 5 to 20
28 | COc1cc(/C=N/c2[nH]nc(Nc3cccc(Cl)c3)c2C#N)ccc1O [Compound A17] | B (no greater than 50% but at least 20% inhibition of the RC kinase activity at 1 μM) | –
29 | NC(=O)c1c(Nc2cccc(Cl)c2)n[nH]c1/N=C/c1cccc(Oc2ncccn2)c1 [Compound B77] | – | 5 to 20
30 | NC(=O)c1c(Nc2cccc(Cl)c2)n[nH]c1/N=C/c1c[nH]c2c(F)c(F)c(F)c(F)c12 [Compound B76] | D (no greater than 5% inhibition of the RC kinase activity at 1 μM) | –
31 | NC(=O)c1c(Nc2cccc(Cl)c2)n[nH]c1/N=C/c1ccc(OC(F)(F)F)c(F)c1 [Compound B90] | D (no greater than 5% inhibition of the RC kinase activity at 1 μM) | –
32 | NC(=O)c1c(Nc2cccc(Cl)c2)n[nH]c1/N=C/c1ccc[nH]1 [Compound B17] | B (no greater than 50% but at least 20% inhibition of the RC kinase activity at 1 μM) | –
33 | CCc1nc(C)c(/C=N/c2[nH]nc(Nc3cccc(Cl)c3)c2C(N)=O)[nH]1 [Compound B70] | B (no greater than 50% but at least 20% inhibition of the RC kinase activity at 1 μM) | –
34 | N#Cc1c(NC2CCCCC2)n[nH]c1/N=C/c1ccccc1 [Compound A51] | D (no greater than 5% inhibition of the RC kinase activity at 1 μM) | –

Same assay, conditions: compound at 1 μM, 1 µM

Row | SMILES | Activity (inhibition of the RC kinase activity)
35 | N#Cc1c(Nc2cccc(Cl)c2)n[nH]c1/N=C/c1ccc(Oc2ncccn2)cc1 [Compound A77] | D (no greater than 5% inhibition of the RC kinase activity at 1 μM)
36 | NC(=O)c1c(Nc2cccc(Cl)c2)n[nH]c1/N=C/c1ccc(Oc2ncccn2)cc1 [Compound B123] | B (no greater than 50% but at least 20% inhibition of the RC kinase activity at 1 μM)
